Source: patent US20120165346A1, “Compounds and their use as BACE inhibitors” (ASTRAZENECA AB, priority 2010, published 2012)

How the values were obtained:
[1] = biological target: T1, human β-Secretase (AA 1-AA 460), sBACE-Fc (Homo sapiens, UniProt P56817); assay: Diluted TR-FRET assay; type: biochemical; conditions: footnote a: diluted FRET assay, 50 times less enzyme, 6.5 h reaction time at r.t.; read-out: IC50 in TR-FRET assay (IC50 from the diluted FRET assay)
T1 construct: soluble part of the human β-Secretase (AA 1-AA 460) was cloned; Fc domain of IgG1; made in house
Description: The cDNA for the soluble part of the human β-Secretase (AA 1-AA 460) was cloned using the ASP2-Fc10-1-IRES-GFP-neoK mammalian expression vector. The gene was fused to the Fc domain of IgG1 (affinity tag) and stably cloned into HEK 293 cells.
The robotic systems Biomek FX and Velocity 11 were used for all liquid handling and the enzyme and substrate solutions were kept on ice until they were placed in the robotic system. Enzyme (9 μA) was added to the plate then 1 μA of compound in dimethylsulphoxide was added, mixed and pre-incubated for 10 minutes. Substrate (10 μA) was then added, mixed and the reaction proceeded for 15 minutes at r.t. The reaction was stopped with the addition of Stop solution (7 μl, NaAcetate, pH 9). […] The dimethylsulphoxide control, instead of test compound, defined the 100% activity level and 0% activity was defined by wells lacking enzyme (replaced with reaction buffer).

[2] = system: sAPPβ release, SH-SY5Y cells; assay: sAPPβ release assay; type: cell-based; conditions: Homo sapiens, compounds incubated 17 h
Description: SH-SY5Y cells were cultured in DMEM/F-12 with Glutamax, 10% FCS and 1% non-essential amino acids and cryopreserved and stored at −140° C. at a concentration of 7.5−9.5×10^6 cells per vial. Thaw cells and seed at a conc. of around 10000 cells/well in DMEM/F-12 with Glutamax, 10% FCS and 1% non-essential amino acids to a 384-well tissue culture treated plate, […] cell susp/well. The cell plates were then incubated for 7-24 h at 37° C., 5% CO2. The cell medium was removed, followed by addition of 30 μL compound diluted in DMEM/F-12 with Glutamax, 10% FCS, 1% non-essential amino acids and 1% PeSt to a final conc. of 1% DMSO. The compounds were incubated with the cells for 17 h (overnight) at 37° C., 5% CO2. Meso Scale Discovery (MSD) plates were used for the detection of sAPPβ release. MSD sAPPβ plates were blocked in 1% BSA in Tris wash buffer (40 μL/well) for 1 h on shake at r.t. and washed 1 time in Tris wash buffer (40 μL/well). 20 μL of medium was transferred to the pre-blocked and washed is MSD sAPPβ microplates, and the cell plates were further used in an ATP assay to measure cytotoxicity. The MSD plates were incubated with shaking at r.t. for 2 h and the media discarded. 10 μL detection antibody was added (1 nM) per well followed by incubation with shaking at r.t. for 2 h and then discarded. 40 μL Read Buffer was added per well and the plates were read in a SECTOR Imager.

T1 sequence (P56817 22-460): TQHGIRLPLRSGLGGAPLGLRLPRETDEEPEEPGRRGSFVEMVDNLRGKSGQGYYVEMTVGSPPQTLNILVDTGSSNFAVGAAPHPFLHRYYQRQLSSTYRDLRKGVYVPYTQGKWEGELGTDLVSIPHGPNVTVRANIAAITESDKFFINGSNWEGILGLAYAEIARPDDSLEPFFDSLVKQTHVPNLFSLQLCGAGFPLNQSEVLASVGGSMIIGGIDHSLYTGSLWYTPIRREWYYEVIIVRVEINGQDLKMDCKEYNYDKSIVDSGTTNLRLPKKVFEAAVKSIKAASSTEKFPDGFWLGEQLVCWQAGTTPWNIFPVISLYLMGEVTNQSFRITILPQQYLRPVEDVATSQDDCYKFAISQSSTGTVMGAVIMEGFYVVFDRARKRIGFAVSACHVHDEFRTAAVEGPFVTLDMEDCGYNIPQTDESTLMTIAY

IC50 [1] [nM]	IC50 [2] [nM]	SMILES
8	2	CCn1cc(C2(c3cccc(-c4cncc(C#N)c4)c3)N=C(N)c3c(F)cccc32)cc(C)c1=O (centres unmarked) [Example 8, 5-(3-(3-Amino-1-(1-ethyl-5-methyl-6-oxo-1,6-dihydropyridin-3-yl)-4-fluoro-1H-isoindol-1-yl)phenyl)nicotinonitrile]
13	4	CCn1cc(C2(c3cccc(-c4cncc(F)c4)c3)N=C(N)c3c(F)cccc32)cc(C)c1=O (centres unmarked) [Example 9, 5-(3-Amino-4-fluoro-1-(3-(5-fluoropyridin-3-yl)phenyl)-1H-isoindol-1-yl)-1-ethyl-3-methylpyridin-2(1H)-one]
6	4	CC#Cc1cncc(-c2cccc(C3(c4cc(C(F)F)c(=O)n(CC)c4)N=C(N)c4c(F)cccc43)c2)c1 (centres unmarked) [Example 23, 5-(3-Amino-4-fluoro-1-(3-(5-(prop-1-ynyl)pyridin-3-yl)phenyl)-1H-isoindol-1-yl)-3-(difluoromethyl)-1-ethylpyridin-2(1H)-one]
5	2	CC#Cc1ccnc(-c2cccc([C@@]3(c4cc(C)c(=O)n(CC)c4)N=C(N)c4c(F)cccc43)c2)c1 [Example 25, (R)-5-(3-Amino-4-fluoro-1-(3-(4-(prop-1-ynyl)pyridin-2-yl)phenyl)-1H-isoindol-1-yl)-1-ethyl-3-methylpyridin-2(1H)-one]
